Among the data in US20140031278A1, “Novel Glucagon Analogues” (NOVO NORDISK A/S, priority 2011, published 2014) are EC50 values, retold here.

*1 amine or outer side, *2 acyl side, *3 side chain or, on linkers, in order; H or OH if unused. Where a SMILES comes first, the peptide text is derived from it. Side-chain parts run from the residue outwards. γGlu = O=C(O)[C@H](CCC(=O)[*:2])N[*:1]

In this test the target is T1, glucagon receptor (Homo sapiens, UniProt P47871).
T1 construct: expressed in transfected cells
T1 sequence (P47871 26-477): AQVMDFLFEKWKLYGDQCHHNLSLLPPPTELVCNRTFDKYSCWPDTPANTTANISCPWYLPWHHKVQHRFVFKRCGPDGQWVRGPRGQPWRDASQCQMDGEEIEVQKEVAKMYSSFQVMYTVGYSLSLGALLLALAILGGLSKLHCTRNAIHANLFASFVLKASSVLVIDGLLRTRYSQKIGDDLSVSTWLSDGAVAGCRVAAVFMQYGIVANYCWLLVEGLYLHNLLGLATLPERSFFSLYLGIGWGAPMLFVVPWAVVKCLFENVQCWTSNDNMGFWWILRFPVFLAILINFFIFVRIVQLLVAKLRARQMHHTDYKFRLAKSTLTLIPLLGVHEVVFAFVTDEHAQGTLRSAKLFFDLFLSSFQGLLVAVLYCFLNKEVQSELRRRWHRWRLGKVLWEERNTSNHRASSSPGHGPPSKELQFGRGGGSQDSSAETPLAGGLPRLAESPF
Put plainly: Assay (I) Glucagon activity (cAMP biosensor, FLIPR). As to conditions: HEK-293 cells with cloned glucagon receptor and cAMP biosensor; end point after 6 minutes. The format is cell-based. The method, then:
The glucagon receptor was cloned into HEK-293 cells having a membrane bound cAMP biosensor (ACTOne™). The cells (14000 per well) were incubated (37° C., 5% CO2) overnight in 384-well plates. Next day the cells were loaded with a calcium responsive dye that only distributed into the cytoplasm. Probenecid, an inhibitor of the organic anion transporter, was added to prevent the dye from leaving the cell. A PDE inhibitor was added to prevent formatted cAMP from being degraded, The plates were placed into a […] and the glucagon analogues were added. End point data were collected after 6 minutes. An increase in intracellular cAMP was proportional to an increased in calcium concentrations in the cytoplasm. When calcium was bound the dry a fluorescence signal was generated. EC50-values were calculated in Prism5.

One may read the EC50 as the concentration giving half of the maximal effect. As to `CC(=O)N[C@@H](CCC(=O)N[C@@H](CCC(=O)N[C@@H](CCC(=O)N[C@@H](CCC(=O)NCCCC[C@H](NC(=O)[C@H](CO)NC(=O)[C@H](CC(C)C)NC(=O)[C@H](CC(C)C)NC(=O)[C@H](Cc1c[nH]c2ccccc12)NC(=O)[C@H](CCC(N)=O)NC(=O)[C@@H](NC(=O)[C@H](Cc1ccccc1)NC(=O)[C@H](CC(=O)O)NC(=O)[C@H](CCC(N)=O)NC(=O)[C@H](C)NC(=O)[C@H](CCCNC(=N)N)NC(=O)[C@H](CCCNC(=N)N)NC(=O)[C@H](CO)NC(=O)[C@H](CC(=O)O)NC(=O)[C@H](CC(C)C)NC(=O)[C@H](Cc1ccc(O)cc1)NC(=O)[C@H](CCCCN)NC(=O)[C@H](CO)NC(=O)[C@H](Cc1ccc(O)cc1)NC(=O)[C@H](CC(=O)O)NC(=O)[C@H](CO)NC(=O)[C@@H](NC(=O)[C@H](Cc1ccccc1)NC(=O)[C@@H](NC(=O)CNC(=O)[C@H](CCC(N)=O)NC(=O)[C@H](CO)NC(=O)[C@@H](N)Cc1c[nH]cn1)[C@@H](C)O)[C@@H](C)O)C(C)C)C(=O)O)C(=O)O)C(=O)O)C(=O)O)C(=O)O` [Example 52, N^ε^29-[(4S)-4-[[(4S)-4-[[(4S)-4-[[(4S)-4-acetamido-4-carboxybutanoyl]amino]-4-carboxybutanoyl]amino]-4-carboxybutanoyl]amino]-4-carboxybutanoyl]-[Leu^27,Ser^28,Lys^29]-Glucagon], a half-maximal response (EC50) required 0.01 nM. The value for `CC(=O)N[C@@H](CCC(=O)N[C@@H](CCC(=O)N[C@@H](CCC(=O)N[C@@H](CCC(=O)NCCCC[C@H](NC(=O)[C@@H](NC(=O)[C@H](Cc1ccccc1)NC(=O)[C@H](CC(=O)O)NC(=O)[C@H](CCC(N)=O)NC(=O)[C@H](C)NC(=O)[C@H](CCCNC(=N)N)NC(=O)[C@H](CCCNC(=N)N)NC(=O)[C@@H](NC(=O)[C@H](CC(=O)O)NC(=O)[C@H](CC(C)C)NC(=O)[C@H](Cc1ccc(O)cc1)NC(=O)[C@H](CCCCN)NC(=O)[C@H](CO)NC(=O)[C@H](Cc1ccc(O)cc1)NC(=O)[C@H](CC(=O)O)NC(=O)[C@H](CO)NC(=O)[C@@H](NC(=O)[C@H](Cc1ccccc1)NC(=O)[C@@H](NC(=O)CNC(=O)[C@H](Cc1c[nH]cn1)NC(=O)[C@H](CO)NC(=O)[C@@H](N)Cc1c[nH]cn1)[C@@H](C)O)[C@@H](C)O)[C@@H](C)O)C(C)C)C(=O)N[C@@H](Cc1c[nH]c2ccccc12)C(=O)N[C@@H](CC(C)C)C(=O)N[C@@H](CC(C)C)C(=O)N[C@@H](CO)C(=O)N[C@H](C(=O)O)[C@@H](C)O)C(=O)O)C(=O)O)C(=O)O)C(=O)O` [Example 32, N^ε24-[(4S)-4-[[(4S)-4-[[(4S)-4-[[(4S)-4-acetamido-4-carboxybutanoyl]amino]-4-carboxybutanoyl]amino]-4-carboxybutanoyl]amino]-4-carboxybutanoyl]-[His3,Thr16,Lys24,Leu27,Ser28]-Glucagon] (H-HSHGTFTSDYSKYLDTRRAQDFVK([γGlu-γGlu-γGlu-γGlu-Ac])WLLST-OH) was 0.009 nM.

The compound `CC(=O)N[C@@H](CCC(=O)N[C@@H](CCC(=O)N[C@@H](CCC(=O)N[C@@H](CCC(=O)NCCCC[C@H](NC(=O)[C@@H](NC(=O)[C@H](Cc1ccccc1)NC(=O)[C@H](CC(=O)O)NC(=O)[C@H](CCC(N)=O)NC(=O)[C@H](C)NC(=O)[C@H](CCCNC(=N)N)NC(=O)[C@H](CCCNC(=N)N)NC(=O)[C@@H](NC(=O)[C@H](CC(=O)O)NC(=O)[C@H](CC(C)C)NC(=O)[C@H](Cc1ccc(O)cc1)NC(=O)[C@H](CCCNC(=N)N)NC(=O)[C@H](CO)NC(=O)[C@H](Cc1ccc(O)cc1)NC(=O)[C@H](CC(=O)O)NC(=O)[C@H](CO)NC(=O)[C@@H](NC(=O)[C@H](Cc1ccccc1)NC(=O)[C@@H](NC(=O)CNC(=O)[C@H](CCC(N)=O)NC(=O)[C@H](CO)NC(=O)[C@@H](N)Cc1c[nH]cn1)[C@@H](C)O)[C@@H](C)O)[C@@H](C)O)C(C)C)C(=O)N[C@@H](Cc1c[nH]c2ccccc12)C(=O)N[C@@H](CC(C)C)C(=O)N[C@@H](CC(C)C)C(=O)N[C@@H](CO)C(=O)N[C@H](C(=O)N1CCC[C@H]1C(=O)O)[C@@H](C)O)C(=O)O)C(=O)O)C(=O)O)C(=O)O` [Example 26] (H-HSQGTFTSDYSRYLDTRRAQDFVK([γGlu-γGlu-γGlu-γGlu-Ac])WLLSTP-OH) showed an EC50 of 0.012 nM. The value for `CC(=O)N[C@@H](CCC(=O)N[C@@H](CCC(=O)N[C@@H](CCC(=O)N[C@@H](CCC(=O)NCCCC[C@H](NC(=O)[C@@H](NC(=O)[C@H](Cc1ccccc1)NC(=O)[C@H](CC(=O)O)NC(=O)[C@H](CCC(N)=O)NC(=O)[C@H](C)NC(=O)[C@H](CCCNC(=N)N)NC(=O)[C@H](CCCNC(=N)N)NC(=O)[C@H](CC(C)C)NC(=O)[C@H](CC(=O)O)NC(=O)[C@H](CC(C)C)NC(=O)[C@H](Cc1ccc(O)cc1)NC(=O)[C@H](CCCNC(=N)N)NC(=O)[C@H](CO)NC(=O)[C@H](Cc1ccc(O)cc1)NC(=O)[C@H](CC(=O)O)NC(=O)[C@H](CO)NC(=O)[C@@H](NC(=O)[C@H](Cc1ccccc1)NC(=O)[C@@H](NC(=O)CNC(=O)[C@H](CCC(N)=O)NC(=O)[C@H](CO)NC(=O)[C@@H](N)Cc1c[nH]cn1)[C@@H](C)O)[C@@H](C)O)C(C)C)C(=O)N[C@@H](Cc1c[nH]c2ccccc12)C(=O)N[C@@H](CC(C)C)C(=O)N[C@@H](CC(C)C)C(=O)N[C@@H](CO)C(=O)N[C@H](C(=O)N1CCC[C@H]1C(=O)O)[C@@H](C)O)C(=O)O)C(=O)O)C(=O)O)C(=O)O` [Example 40, N^ε24-[(4S)-4-[[(4S)-4-[[(4S)-4-[[(4S)-4-acetamido-4-carboxybutanoyl]amino]-4-carboxybutanoyl]amino]-4-carboxybutanoyl]amino]-4-carboxybutanoyl]-[Arg12,Leu16,Lys24,Leu27,Ser28]-Glucagonyl-Pro] (H-HSQGTFTSDYSRYLDLRRAQDFVK([γGlu-γGlu-γGlu-γGlu-Ac])WLLSTP-OH) was 0.003 nM; that for `CC(=O)N[C@@H](CCC(=O)N[C@@H](CCC(=O)N[C@@H](CCC(=O)N[C@@H](CCC(=O)NCCCC[C@H](NC(=O)[C@@H](NC(=O)[C@H](Cc1ccccc1)NC(=O)[C@H](CC(=O)O)NC(=O)[C@H](C)NC(=O)[C@H](C)NC(=O)[C@H](CCCNC(=N)N)NC(=O)[C@H](CCCNC(=N)N)NC(=O)[C@H](CC(C)C)NC(=O)[C@H](CC(=O)O)NC(=O)[C@H](CC(C)C)NC(=O)[C@H](Cc1ccc(O)cc1)NC(=O)[C@H](CCCCN)NC(=O)[C@H](CO)NC(=O)[C@@H](NC(=O)[C@H](CC(=O)O)NC(=O)[C@H](CO)NC(=O)[C@@H](NC(=O)[C@H](Cc1ccccc1)NC(=O)[C@@H](NC(=O)CNC(=O)[C@H](Cc1c[nH]cn1)NC(=O)[C@H](C)NC(=O)[C@@H](N)Cc1c[nH]cn1)[C@@H](C)O)[C@@H](C)O)C(C)C)C(C)C)C(=O)N[C@@H](Cc1c[nH]c2ccccc12)C(=O)N[C@@H](CC(C)C)C(=O)N[C@@H](CC(C)C)C(=O)N[C@@H](CO)C(=O)N[C@H](C(=O)O)[C@@H](C)O)C(=O)O)C(=O)O)C(=O)O)C(=O)O` [Example 62, N^ε24-[(4S)-4-[[(4S)-4-[[(4S)-4-[[(4S)-4-acetamido-4-carboxybutanoyl]amino]-4-carboxybutanoyl]amino]-4-carboxybutanoyl]amino]-4-carboxybutanoyl]-[Ala^2,His^3,Val^10,Leu^16,Ala^20,Lys^24,Leu^27,Ser^28]-Glucagon] (H-HAHGTFTSDVSKYLDLRRAADFVK([γGlu-γGlu-γGlu-γGlu-Ac])WLLST-OH) was 0.052 nM. The result for `CC(=O)N[C@@H](CCC(=O)N[C@@H](CCC(=O)N[C@@H](CCC(=O)N[C@@H](CCC(=O)NCCCC[C@H](NC(=O)[C@@H](NC(=O)[C@H](Cc1ccccc1)NC(=O)[C@H](CCC(=O)O)NC(=O)[C@H](C)NC(=O)[C@H](C)NC(=O)[C@H](CCCNC(=N)N)NC(=O)[C@H](CCCNC(=N)N)NC(=O)[C@@H](NC(=O)[C@H](CC(=O)O)NC(=O)[C@H](CC(C)C)NC(=O)[C@H](Cc1ccc(O)cc1)NC(=O)[C@H](CCCCN)NC(=O)[C@H](CO)NC(=O)[C@@H](NC(=O)[C@H](CC(=O)O)NC(=O)[C@H](CO)NC(=O)[C@@H](NC(=O)[C@H](Cc1ccccc1)NC(=O)[C@@H](NC(=O)CNC(=O)[C@H](Cc1c[nH]cn1)NC(=O)CNC(=O)[C@@H](N)Cc1c[nH]cn1)[C@@H](C)O)[C@@H](C)O)C(C)C)C(C)C)C(C)C)C(=O)N[C@@H](Cc1c[nH]c2ccccc12)C(=O)N[C@@H](CC(C)C)C(=O)N[C@@H](CC(C)C)C(=O)N[C@@H](CO)C(=O)N[C@H](C(=O)O)[C@@H](C)O)C(=O)O)C(=O)O)C(=O)O)C(=O)O` [Example 50, N^ε24-[(4S)-4-[[(4S)-4-[[(4S)-4-[[(4S)-4-acetamido-4-carboxybutanoyl]amino]-4-carboxybutanoyl]amino]-4-carboxybutanoyl]amino]-4-carboxybutanoyl]-[Gly^2,His^3,Val^10,Val^16,Ala^20,Glu^21,Lys^24,Leu^27,Ser^28]-Glucagon] (H-HGHGTFTSDVSKYLDVRRAAEFVK([γGlu-γGlu-γGlu-γGlu-Ac])WLLST-OH) reads 0.153 nM.
